Reference: patent US8597922B2, “Methods and compositions for producing olefins” (LS9, Inc., priority 2007, dated 2013)

What was measured:
ATCC 8456 cells = assay: Fatty acid feeding of ATCC 8456 cells, α-olefins analyzed by GC-MS; type: cell-based, Jeotgalicoccus sp. ATCC 8456; conditions: fatty acid fed at 0.5 g/l (0.05%), 40-48 h at 30° C.; for α-olefin whose production increased upon fatty acid feeding: olefins not normally produced by ATCC 8456
Experimental: ATCC 8456 cells were grown in 15 mL TSBYE medium (3% Tryptic Soy Broth+0.5% Yeast Extract). Fatty acids were added to the culture medium at final concentrations of 0.5 g/l (0.05%). After growth for 40-48 h at 30° C., cells from 5 mL of culture were pelleted, resuspended in 1 mL methanol, sonicated for 30 min, and extracted with 4 mL hexane. After solvent evaporation, samples were resuspended in 0.1 mL hexane and analyzed by GC-MS.

ORF880 = assay: In vitro reaction rates of purified ORF880 with different fatty acid substrates; type: biochemical, Jeotgalicoccus sp. ATCC8456; conditions: 1.0 μM ORF880, 200 μM fatty acid salt, pH 7.2, room temperature, between 20 min and 47 min
Experimental: The genomic DNA encoding Jeotgalicoccus sp. ATCC8456_orf880 was cloned into the NdeI and XhoI sites of vector pET15b (Novagen) under the control of the T7 promoter for expression in and purification from E. coli. This plasmid expressed an N-terminal His-tagged version of 8456_orf880.
An E. coli BL21 strain (DE3) (Invitrogen) was transformed with pET15b-orf880 using routine chemical transformation techniques. Protein expression was carried out by first inoculating a colony of the E. coli strain in 5 mL of LB media supplemented with 100 mg/L of carbenecillin and shaken overnight at 37° C. to produce a starter culture. This starter culture was used to inoculate 1 L of LB media supplemented with 100 mg/L of carbenecillin. The culture was shaken at 37° C. until an OD600 value of 0.6 was reached. The culture was placed on ice for 10 min before IPTG was added to a final concentration of 250 μM. The culture was then shaken at 18° C. for approximately 18 h. The culture was then centrifuged at 3,700 rpm for 20 min at 4° C. The pellet was then resuspended in 30 mL of buffer containing 100 mM sodium phosphate buffer at pH 7.2 supplemented with Bacterial ProteaseArrest (GBiosciences). The cells were then sonicated at 12 W on ice for 9 sec with 1.5 sec of sonication followed by 1.5 sec of rest. This procedure was repeated 5 times with one min intervals between each sonication cycle. The cell free extract was centrifuged at 10,000 rpm for 30 min at 4° C. 5 mL of Ni-NTA (Qiagen) was added to the supernatant and the mixture was gently stirred at 4° C. The slurry was passed over a column removing the resin from the lysate. The resin was then washed with 30 mL of buffer containing 100 mM sodium phosphate buffer at pH 7.2 plus 30 mM imidazole. Finally, the protein was eluted with 15 mL of 100 mM sodium phosphate buffer at pH 7.2 plus 250 mM imidazole. The protein solution was dialyzed with 200 volumes of 100 mM sodium phosphate buffer at pH 7.2. Protein concentration was determined using the Bradford assay (Biorad). 125 μg/mL of protein was obtained.
In order to assay the in vitro fatty acid substrate specificity of ORF880, potassium salts of the following fatty acids were prepared: tetradecanoic acid, hexadecanoic acid, octadecanoic acid, eicosanoic acid, and behenic acid (Sigma). The fatty acid solutions were made with 2% ethanol and 2% Tergitol solution (Sigma, St. Louis, Mo.) to a final concentration of 20 mM.
The kinetics of the decarboxylation reaction was determined using potassium octadecanoate. A 200 μL reaction was prepared with the following reactant concentrations: 1.25 μM of ORF880, 200 μM of potassium octadecanoate, […], and 100 mM sodium phosphate buffer at pH 7.2. […] Samples were analyzed using GC/MS using the alkane-1 splitless method, which is performed using the following parameters: run time: 20 min; column: HP-5-MS Part No. 19091S-433E (length of 30 meters; I.D.: 0.25 mm narrowbore; film: 0.25 μM); sample: standard ethyl acetate extraction; inject: 1 μL Agilent 6850 inlet; inlet: 300° C. splitless; carrier gas: helium; flow: 1.3 mL/min; oven temp: 100° C. hold 5 min, 320 at 20° C./min, 320 hold 5 min; det: Agilent 5975B VL MSD; det. temp: 300° C.; scan: 50-500 M/Z. Calibration curves were generated using 1-heptadecene dissolved in ethyl acetate. Based upon this analysis, the product production was determined to be linear from 5 min to 60 min. […]

[1] = test system: ATCC 8456 cell free extract; assay: Conversion of free fatty acids into α-olefins by ATCC 8456 cell free extract; type: biochemical, Jeotgalicoccus sp. ATCC 8456; conditions: for α-olefin formed from the fatty acid by cell free extract: 1 mM free fatty acid salt, room temperature, 3 h
Experimental: A cell free extract of ATCC 8456 was used to convert free fatty acids into α-olefins. The cell free extract was generated using the following procedure: ATCC 8456 cells were grown in TSBYE medium (3% Tryptic Soy Broth+0.5% Yeast Extract) at 30° C. for 24 h with shaking. The cells were then pelleted from the culture by centrifuging at 3,700 rpm for 20 min. The cell pellet was then resuspended in 50 mM Tris buffer pH 7.5 with 0.1 M NaCl and 2.0 mM dithiothreitol to a concentration of 0.1 g/mL cells. To this cell slurry, 200 units/mL of lysostaphin (Sigma) were added on ice. The cell lysis reaction was allowed to proceed for 30 min. The cells were then sonicated at 12 W on ice for three cycles of 1.5 sec of sonication followed by 1.5 sec of rest. Sonication lasted for a total of 9 sec. This procedure was repeated 5 times with a 1 min interval between each sonication cycle. The lysed cells were then centrifuged at 12,000 rpm for 10 min to pellet the cell debris. The supernatant (i.e., cell free extract) was then removed and used for the conversion of free fatty acids to α-olefins.
First, a 5% stock solution of sodium or potassium stearate was made in 1% Tergitol solution (Sigma, St. Louis, Mo.). Next, 6 μL of the stock solution was added to 1 mL of the cell free extract at room temperature to obtain a final concentration of 1 mM free fatty acid salt. The reaction was conducted at room temperature for 3 h. The α-olefins were recovered by adding 200 μL of ethyl acetate to the mixture, vortexing briefly, centrifuging briefly, and then removing the organic phase. The α-olefins were detected using GC/MS.
In sample 1 (TIC1; black line in FIG. 5), no stearic acid was added to the cell free extract. In sample 2 (TIC3; blue line in FIG. 5), the cell free extract was replaced with 50 mM Tris pH 7.5 buffer with 0.1 M sodium chloride to which stearic acid was added. In sample 3 (TICS; red line in FIG. 5), stearic acid was added to the cell free extract. The peak at 7.62 min had the same retention time and the same mass spectra as a 1-heptadecene standard (Sigma). When eicosanoic acid was added under similar conditions, 1-nonadecene was formed.
When the cell free extract was supplemented with several co-factors in 1 mM concentrations, no increase in α-olefin synthesis was observed. The co-factors examined were NAD+, NADP+, NADH, NADPH, FADH2, SAM, ATP, and CoA. In addition, Mg^2+ was examined at a 10 mM concentration. The co-factor requirement was also tested by dialyzing the cell free extract with a 10 kDa cut-off membrane for 1.5 h in a volume 200-fold greater than the cell extract volume using a dialysis buffer: 50 mM Tris, pH 7.5 with 0.1 M sodium chloride. No decrease in α-olefin synthesis was observed after dialysis. Additionally, no decrease in α-olefin synthesis was observed when 10 mM EDTA pH 7.5 was added to the reaction mixture.

| SMILES | Activity (nM alkene produced/min) (ORF880) | effect of co-factor supplementation on α-olefin synthesis ([1]; co-factor at 1 mM) | other results |
| --- | --- | --- | --- |
| CCCCCCCCCCCCCCCC(=O)O [hexadecanoic acid] | 181.9 | – | α-olefin whose production increased upon fatty acid feeding (ATCC 8456 cells): 1-heptadecene |
| O=C(O)CN(CCN(CC(=O)O)CC(=O)O)CC(=O)O [EDTA] | – | – | effect on α-olefin synthesis when added to the reaction mixture ([1]; 10 mM, pH 7.5): no decrease |
| CCCCCCCCCCCCCC(=O)O [tetradecanoic acid] | 22.9 | – | – |
| NC(=O)c1ccc[n+]([C@@H]2O[C@H](COP(=O)([O-])OP(=O)(O)OC[C@H]3O[C@@H](n4cnc5c(N)ncnc54)[C@H](OP(=O)(O)O)[C@@H]3O)[C@@H](O)[C@H]2O)c1 [NADP+] | – | no increase | – |
| NC(=O)c1ccc[n+]([C@@H]2O[C@H](COP(=O)([O-])OP(=O)(O)OC[C@H]3O[C@@H](n4cnc5c(N)ncnc54)[C@H](O)[C@@H]3O)[C@@H](O)[C@H]2O)c1 [NAD+] | – | no increase | – |
| Nc1ncnc2c1ncn2[C@@H]1O[C@H](COP(=O)(O)OP(=O)(O)OP(=O)(O)O)[C@@H](O)[C@H]1O [ATP] | – | no increase | – |
| Cc1cc2c(cc1C)N(C[C@H](O)[C@H](O)[C@H](O)COP(=O)(O)OP(=O)(O)OC[C@H]1O[C@@H](n3cnc4c(N)ncnc43)[C@H](O)[C@@H]1O)c1[nH]c(=O)[nH]c(=O)c1N2 [FADH2] | – | no increase | – |
| CCCCCCCCCCCCCCCCCC(=O)O [octadecanoic acid] | 77.2 | – | α-olefin whose production increased upon fatty acid feeding (ATCC 8456 cells): 1-pentadecene; α-olefin formed from the fatty acid by cell free extract [1]: 1-heptadecene |
| C[S+](CC[C@H](N)C(=O)[O-])C[C@H]1O[C@@H](n2cnc3c(N)ncnc32)[C@H](O)[C@@H]1O (some centres unmarked) [SAM] | – | no increase | – |
| [Mg+2] [Mg^2+] | – | – | effect of co-factor supplementation on α-olefin synthesis ([1]; 10 mM concentration): no increase |
| NC(=O)C1=CN([C@@H]2O[C@H](COP(=O)(O)OP(=O)(O)OC[C@H]3O[C@@H](n4cnc5c(N)ncnc54)[C@H](O)[C@@H]3O)[C@@H](O)[C@H]2O)C=CC1 [NADH] | – | no increase | – |
| CCCCCCCCCCCCCCCCCCCC(=O)O [eicosanoic acid] | 19.7 | – | increase in 1-nonodecene production (ATCC 8456 cells; versus no fatty acid feeding): approximately 18 fold; α-olefin formed from the fatty acid by cell free extract [1]: 1-nonadecene |
| CC(C)(COP(=O)(O)OP(=O)(O)OC[C@H]1O[C@@H](n2cnc3c(N)ncnc32)[C@H](O)[C@@H]1OP(=O)(O)O)[C@@H](O)C(=O)NCCC(=O)NCCS [CoA] | – | no increase | – |
| NC(=O)C1=CN([C@@H]2O[C@H](COP(=O)(O)OP(=O)(O)OC[C@H]3O[C@@H](n4cnc5c(N)ncnc54)[C@H](OP(=O)(O)O)[C@@H]3O)[C@@H](O)[C@H]2O)C=CC1 [NADPH] | – | no increase | – |
| CCCCCCCCCCCCCCCCCCCCCC(=O)O [behenic acid] | 30.6 | – | – |
